“Also recorded” adds a separate entry of the source.
How the values were obtained:
Neuro-2A-cells = test: Puromycin selection after knock-in of the GFP-Puromycin-LDS; assay type: cell-based, murine
Text: FIG. 12A, B. Puromycin selection after Knock-In of the GFP-Puromycin-LDS. After the knock-out of solute carrier Slc26a4 and integration of GFP-Puromycin-Donor sequence, the cells were cultivated for seven passages until Puromycin selection was started. Different concentrations of Puromycin were applied and the cell viability was observed (A, B). […] Plate wells in rows A-C are numbered 1-4 from left to right. Wells C3-4 were empty.
Subsequent to the co-transfection of Cas9-gRNA-Plasmid and LDS in the presence of GE1741, a Puromycin-mediated selection enabled the isolation of transfected cells and facilitates the identification of donor sequence integration into the genome. For this purpose, different Puromycin concentrations were applied to the transfected cells, in the presence of GE1741. The optimal puromycin concentration should optimally kill non-transfected/non-resistant cells, while sparing cells, which received the resistance through the donor sequence.

Neuro-2A cells = test: Transfection efficiency of PD-nanoplexes with/without saponin, flow cytometry (GFP); assay type: cell-based, murine
Experimental: (§1) After biophysical characterisation had established that nanoplexes of the large plasmid DNA and the poly-lysine peptide were formed, cell experiments were performed: transfections. […] Without wishing to be bound by any theory, the latter effect is most likely due to insufficient complexing of DNA. […] JIMT-1-cells (DSMZ no.: ACC 589) and Neuro-2A- cells (DSMZ no.: ACC 148) were transfected with nanoplexes containing relatively large Cas9-GFP-plasmid, with and without GE1741-Co-application or SO1861-Co-application at a non-toxic concentration, when the cell which is to be transfected is considered. The transfection efficiency of all transfection conditions was measured after 48 h incubation time using flow cytometry by comparison to the negative control in terms of fluorescence intensity (for example, cells contacted with the nanoparticles in the absence of saponin). The efficiency of GE1741-based transfections and SO1861-based transfections was also compared with efficiency of Lipofectamine3000™-based transfection of the nanoparticles. Transfections were performed according to protocols commonly known and applied in the field (Clochard et al., 2020; Sama et al., 2018a; Sama et al., 2017; Sama et al., 2018b). […] Transfection efficiency of GE1741-mediated PD-transfection and SO1861-mediated PD-transfections on Neuro-2A cells and JIMT-1 cells was assessed. Cells were transfected with Cas9-GFP-DNA containing PD-nanoplexes, with and without GE1741 or SO1861 (final concentration of the saponin was 2 μg/ml). In Neuro-2A cells and JIMT-1 cells transection efficiency varied between 30% and 40%. Lipofectamin3000 served as reference. n≥3; a significant difference compared to the GE1741-free transfections or SO1861-free transfections was apparent, U-test, p≤0.05.
FIG. 4A, B. Transfection efficiency of saponin-mediated PD (Cas9-GFP)-transfections on Neuro-2A cells (FIG. 4A) and on JIMT-1-cells (FIG. 4B). Neuro-2A cells (A) and JIMT-1 cells (B) were transfected with GFP-DNA (i.e. a plasmid comprising the GFP DNA) bearing PD-nanoplexes or with Cas9-GFP-DNA bearing PD-nanoplexes, with and without the highest non-toxic saponin Co-administration (GE1741 Co-administration at 2 μg/ml or SO1861 Co-administration at 2 μg/ml). While GFP-DNA-transfections reached high efficiencies of around 70%, approximately 40% of all cells expressed GFP after Cas9-GFP-transfection. […] N≥3; *: significant difference compared to the saponin-free transfection (only nuclease), U-test.
JIMT-1-cells (human breast carcinoma) and Neuro-2A-cells (murine neuroblastoma) were transfected with nanoplexes, containing Cas9-GFP-plasmid, with and without saponin GE1741-co-application or saponin SO1861-co-application (that is to say, the saponin is added to the cell culture together with the addition of the nanoparticles comprising the nucleic acid that is to be transfected in the presence of the saponin), in a non-toxic concentration when the saponins are considered. The mass ratios for the peptide and the nucleic acid (plasmid DNA) in the nanoparticles were selected considering the dynamic light scattering (DLS) measurements and considering the aforementioned earlier assessed toxicity and earlier performed efficiency studies. The transfection efficiency of all transfection conditions was measured after 48 h incubation time via flow cytometry by comparison to the negative control in terms of fluorescence intensity (FIG. 4). […]

JIMT-1 cells = test: as above; assay type: cell-based, human; settings: GFP-DNA PD-nanoplexes, saponin 2 μg/ml
Experimental: as §1, with “Cells were transfected with Cas9-GFP-DNA containing PD-nanoplexes, with and without GE1741 or SO1861 (final concentration of the saponin was 2 μg/ml). In Neuro-2A cells and JIMT-1 cells transection efficiency varied between 30% and 40%. Lipofectamin3000 served as reference. n≥3; a significant difference compared to the GE1741-free transfections or SO1861-free transfections was apparent, U-test, p≤0.05.” left out

[1] = test system: cells with which the nanoplexes are contacted; test: Toxicity of saponin towards cells during transfection; assay type: cell-based
Text: It is part of the invention that the method or the use of the invention is characterized in that the nanoparticle comprises the nanoparticle-forming compound, such as a peptide, such as poly-lysine, and the nucleic acid in a mass ratio in a range of 3:1 to 15:1, preferably in a range of 3:1 to 9:1. Typically, the nanoparticle-forming compound is a poly-lysine peptide such as K16 peptide. Preferred is the method wherein the nucleic acid is a plasmid DNA, at least encoding for a Cas, preferably Cas9 (SEQ ID NO: 1), and optionally also encoding for the gRNA, and wherein the nanoparticles comprise in addition to the plasmid DNA at least one poly-lysine peptide, preferably poly-lysine K16 peptide (poly-lysine peptide consisting of sixteen lysine residues). Alternatively, the poly-lysine peptide is a peptide consisting of 8-25 lysine residues, preferably 10-20, more preferably 12-18. High in vitro transfection efficiency is obtained with the method of the invention when nanoparticles encompassing plasmid DNA, K16 peptide are prepared and applied, and are contacted with cells in the presence of a saponin selected from GE1741 and SO1861, and preferably the saponin is GE1741. Typically, the saponin concentration during transfection of the plasmid DNA into selected target cells in vitro is 1 μg/mL-5 μg/mL, preferably 2-4 μg/mL. […] Cells are typically contacted with a composition comprising the nanoplexes and a separate composition comprising the saponin, preferably GE1741. Thus, typically, the nanoparticles comprise the poly-lysine peptide and the nucleic acid, for example at least a plasmid DNA encoding for a Cas, preferably Cas9 (SEQ ID NO: 1), or a Cas with at least 90% sequence identity with this Cas9, preferably 90-99.5% sequence identity, such as 92%, 93%, 94%, 95% or 95-99%.

Compound	effect on cells (selection) (Neuro-2A-cells; 0.5 μg/mL)	effect on cells (selection) (Neuro-2A-cells; 1 μg/mL)	effect on cells (selection) (Neuro-2A-cells; 2 μg/mL)	effect on cells (selection) (Neuro-2A-cells; 2-3 μg/mL)	transfection efficiency (cells expressing GFP) (Neuro-2A cells; GFP-DNA PD-nanoplexes, saponin 2 μg/ml, Neuro-2A)	transfection efficiency compared with Lipofectamine3000 (Neuro-2A cells; nanoplexes of relatively large DNA plasmid and poly-lysine, saponin present)	transfection efficiency (cells expressing GFP) (JIMT-1 cells)	highest non-toxic saponin Co-administration ([1]; Neuro-2A and JIMT-1 transfections)	toxic activity towards the cells ([1]; saponin concentration of 1 μg/mL-5 μg/mL, applied together with the nanoplexes)
COc1ccc(C[C@H](N)C(=O)N[C@H]2[C@@H](O)[C@H](n3cnc4c(N(C)C)ncnc43)O[C@@H]2CO)cc1 [Puromycin]	no significant effect	incomplete selection; also recorded: decrease of confluence	decrease of confluence	diminished nearly all cells					
CC(=O)OC1C(C)OC(OC2C(C)OC(OC(=O)[C@]34CCC(C)(C)CC3C3=CCC5[C@@]6(C)CC[C@H](OC7OC(C(=O)O)C(O)C(OC8OCC(O)C(O)C8O)C7OC7OC(CO)C(O)C(O)C7O)[C@@](C)(C=O)C6CC[C@@]5(C)C3(C)CC4O)C(OC3OC(C)C(OC4OCC(O)C(OC5OC(CO)C(O)C(O)C5O)C4O)C(O)C3O)C2O)C(O)C1OC1OCC(O)C(O)C1O (stereo partly drawn) [SO1861]					around 70%	higher than obtainable with current gold standard Lipofectamine3000™	around 70%	2 µg/mL	not exhibiting toxic activity

Reference: patent publication US20240279684A1, “CYTOSOLIC DELIVERY OF GENOME EDITING TOOLS” (SAPREME TECHNOLOGIES B.V., priority 2021, published 2024)
